Values of other authors, collected in patent publication US20220331377A1, “DELIVERY VEHICLE FOR IN SITU DELIVERING OF PHARMACEUTICAL AGENTS” (priority 2019, published 2022).

Tested on: C. difficile
Settings: patients; P=0.05; cited from earlier work

In the case of `CN[C@H](CC(C)C)C(=O)N[C@H]1C(=O)N[C@@H](CC(N)=O)C(=O)N[C@H]2C(=O)N[C@H]3C(=O)N[C@H](C(=O)N[C@H](C(=O)O)c4cc(O)cc(O)c4-c4cc3ccc4O)[C@H](O)c3ccc(c(Cl)c3)Oc3cc2cc(c3O[C@@H]2O[C@H](CO)[C@@H](O)[C@H](O)[C@H]2O[C@H]2C[C@](C)(N)[C@H](O)[C@H](C)O2)Oc2ccc(cc2Cl)[C@H]1O` [vancomycin], the “recurrent C. difficile disease (RCDD)” value is given as 50%.
